Laboratory results published in article PMC6150295, “Synthesis and Biological Evaluation of 2H-Indazole Derivatives: Towards Antimicrobial and Anti-Inflammatory Dual Agents” (Molecules : A Journal of Synthetic Chemistry and Natural …, 2017).
Read-outs that look alike come from different tables or passages of the source.

What was measured:
[1] = test system: Giardia intestinalis isolate IMSS:0981:1; assay: In vitro antiprotozoal assay (trophozoite subculture method); assay type: cell-based; details: for IC50: Giardia duodenalis, read-out: IC50 (µM) G. intestinalis
Description: (§1) The in vitro antiprotozoal assays against E. histolytica, G. intestinalis, and T. vaginalis of the 2-phenyl-2H-indazole and 2,3-diphenyl-2H-indazole derivatives were carried out following the method previously described. Metronidazole (MTZ) and albendazole (ABZ) were used as reference drugs. […] Similarly, compound 7, having a phenyl at position 2, has good activity against the three protozoa, ranking third in activity for T. vaginalis and forth against G. intestinalis and E. histolytica. […] These derivatives had groups H, COOCH3, Cl, and SO2CH3 at positions 2 and 3, substituents that induced the best response in 2-phenyl-2H-indazole derivatives. In addition, carboxylic acids 20 and 25 were of interest for comparative purposes with ester derivatives.
(§2) Trichomonas vaginalis strain GT3, Giardia intestinalis isolate IMSS:0981:1, and Entamoeba histolytica strain HM1-IMSS were used. Trophozoites of G. intestinalis were maintained in a TYI-S-33 medium supplemented with 10% calf serum and bovine bile. E. histolytica and T. vaginalis trophozoites were maintained in TYI-S-33 medium supplemented with 10% bovine serum. Briefly, 5 × 10^4 trophozoites of G. intestinalis or T. vaginalis, or 6 × 10^3 trophozoites of E. histolytica were incubated for 48 h at 37 °C with different concentrations of the compound to be tested, each added as solutions in DMSO. As a negative control, parasite cultures received an equivalent amount of DMSO only, while albendazole and metronidazole were included as positive controls. At the end of the treatment period, the cells were washed and subcultured for another 48 h in a fresh medium to which no drug was added. […] Experiments were carried out in triplicate and repeated at least twice.

[2] = test system: Entamoeba histolytica strain HM1-IMSS; assay: as above; assay type: cell-based; details: for IC50: Entamoeba histolytica, read-out: IC50 (µM) E. histolytica; for improvement in potency against E. histolytica relative to the analog: 17 compared with 8, 20 compared to 13, 26 compared to 21
Description: as §1, §2

[3] = test system: Trichomonas vaginalis strain GT3; assay: as above; assay type: cell-based; details: for IC50: Trichomonas vaginalis, read-out: IC50 (µM) T. vaginalis
Description: as §1, §2

[4] = test system: Salmonella enterica serovar Typhi; assay: Disk diffusion susceptibility test; assay type: cell-based
[5] = test system: Escherichia coli strain EDL933 (EHEC); assay: Disk diffusion susceptibility test; assay type: cell-based; details: for Inhibition (positive / none) E. coli 933: 5 mg per disc, 37 °C, 24 h; for zone of inhibition at 5000 µg/disc: Escherichia coli, read-out: Zone of inhibition at 5 mg per disc (mm) E. coli 933
Candida albicans = assay: Disk diffusion susceptibility test; assay type: cell-based; details: for Inhibition (positive / none) C. albicans: 5 mg per disc, 37 °C, 24 h
[6] = test system: Escherichia coli strain 042 (EAEC); assay: Disk diffusion susceptibility test; assay type: cell-based; details: 5 mg per disc, 37 °C, 24 h
Candida glabrata = assay: Disk diffusion susceptibility test; assay type: cell-based; details: for Inhibition (positive / none) C. glabrata: 5 mg per disc, 37 °C, 24 h; for zone of inhibition at 5000 µg/disc: Nakaseomyces glabratus, read-out: Zone of inhibition at 5 mg per disc (mm) C. glabrata
[7] = target: T1, human recombinant cyclooxygenase-2 (Homo sapiens, UniProt P35354); assay: COX inhibitor screening assay (Cayman kit); assay type: biochemical; details: tested at 10 µM
T1 construct: purchased Cayman Chemical 560131
T1 sequence (P35354 18-604): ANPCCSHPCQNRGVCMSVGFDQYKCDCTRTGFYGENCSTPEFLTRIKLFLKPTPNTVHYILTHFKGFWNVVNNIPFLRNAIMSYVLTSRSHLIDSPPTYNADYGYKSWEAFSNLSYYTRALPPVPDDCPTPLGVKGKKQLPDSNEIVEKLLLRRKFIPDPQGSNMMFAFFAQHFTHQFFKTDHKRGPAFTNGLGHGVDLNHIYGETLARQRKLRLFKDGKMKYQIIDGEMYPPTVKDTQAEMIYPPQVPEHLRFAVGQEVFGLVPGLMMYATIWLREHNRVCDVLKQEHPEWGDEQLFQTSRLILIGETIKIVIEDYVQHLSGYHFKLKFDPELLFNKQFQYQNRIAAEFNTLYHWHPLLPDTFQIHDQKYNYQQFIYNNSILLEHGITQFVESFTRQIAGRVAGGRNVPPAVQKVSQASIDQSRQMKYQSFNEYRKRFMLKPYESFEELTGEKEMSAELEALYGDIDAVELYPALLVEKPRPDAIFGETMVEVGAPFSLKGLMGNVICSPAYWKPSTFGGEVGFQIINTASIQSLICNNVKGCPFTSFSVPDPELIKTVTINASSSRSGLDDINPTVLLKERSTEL
Description: Additionally, molecular docking studies using AutoDock Vina software (TSRI, La Jolla, CA, USA) were performed to aid in the interpretation of the experimental results. […] Nevertheless, these compounds represent an interesting starting point towards the design of new antiparasitic compounds with an additional COX-2 inhibitory property.
Assays were carried out by duplicate following the instructions provided by the manufacturer.

[8] = trophozoites, 48 h with compound then 48 h subculture without drug
[9] = GT3, trophozoites, 48 h with compound then 48 h subculture without drug
[10] = 16 relative to 7, 20 compared to 13

SMILES | Inhibition (positive / none) E. coli 933 [5] | IC50 [1, 8] | IC50 [2, 8] | IC50 [3, 9] | Inhibition (positive / none) C. albicans (Candida albicans) | Inhibition (positive / none) E. coli 042 [6] | Inhibition (positive / none) S. Typhi ([4]; 5 mg per disc, 37 °C, 24 h) | melting point | Inhibition (positive / none) C. glabrata (Candida glabrata) | other results
CCCSc1ccc2nc(NC(=O)OC)[nH]c2c1 [ABZ, albendazole, reference compound] |  |  |  |  |  |  |  |  |  | IC50 ([1]; 48 h): 0.037 ± 0.003 µM; IC50 ([2]; 48 h): 56.5 ± 18.8 µM; IC50 ([3]; GT3, 48 h): 1.591 ± 0.0113 µM
CC1(C)S[C@@H]2[C@H](NC(=O)[C@H](N)c3ccccc3)C(=O)N2[C@H]1C(=O)O [Ampicillin, ampicillin, reference compound] |  |  |  |  |  |  |  |  |  | Inhibition (positive / none) S. Typhi ([4]; positive control, ampicillin 25 µg): +
c1ccc(-n2cc3ccccc3n2)cc1 [Compound 7, 2-Phenyl-2H-indazole] | - | 0.113 ± 0.0218 µM | 0.0798 ± 0.0036 µM | 0.118 ± 0.0218 µM | - | - | + | 81.2 to 81.6 °C | - | zone of inhibition at 5000 µg/disc ([4]; Salmonella enterica, TYPHI, read-out: Zone of inhibition at 5 mg per disc (mm) S. Typhi): 9 mm; % of Inhibition of COX-2 [7]: Inactive
Clc1ccc(-n2cc3ccccc3n2)cc1 [Compound 8, 2-(4-Chlorophenyl)-2H-indazole] |  | 0.0634 ± 0.0031 µM | 0.0415 ± 0.0031 µM | 0.107 ± 0.0031 µM |  |  |  | 143 to 145.5 °C |  | 
COc1ccc(-n2cc3ccccc3n2)cc1 [Compound 9, 2-(4-Methoxyphenyl)-2H-indazole] |  | 0.205 ± 0.0063 µM | 0.154 ± 0.0158 µM | 0.372 ± 0.0158 µM |  |  |  | 133.2 to 135.8 °C |  | 
COC(=O)c1ccc(-n2cc3ccccc3n2)cc1 [Compound 10, Methyl 4-(2H-indazol-2-yl) benzoate] | - | 0.0634 ± 0.0056 µM | 0.0218 ± 0.0028 µM | 0.107 ± 0.0056 µM | - | - | - | 185.8 to 186.2 °C | - | 
CSc1ccc(-n2cc3ccccc3n2)cc1 [Compound 11, 2-(4-(Methylthio)phenyl)-2H-indazole] |  | 0.218 ± 0.0088 µM | 0.0978 ± 0.0147 µM | 0.273 ± 0.0147 µM |  |  |  | 148.3 to 149.7 °C |  | 
Oc1ccc(-n2cc3ccccc3n2)cc1 [Compound 12, 4-(2H-Indazol-2-yl) phenol] |  | 0.119 ± 0.0067 µM | 0.0737 ± 0.0101 µM | 0.157 ± 0.0135 µM |  |  |  | 179 to 181 °C |  | 
O=C(O)c1ccc(-n2cc3ccccc3n2)cc1 [Compound 13, 4-(2H-Indazol-2-yl) benzoic acid] |  | 0.193 ± 0.0119 µM | 0.0965 ± 0.0059 µM | 0.327 ± 0.0178 µM |  |  |  | 288.3 to 288.5 °C |  | 
C[S+]([O-])c1ccc(-n2cc3ccccc3n2)cc1 (centres unmarked) [Compound 14, 2-(4-(Methylsulfinyl)phenyl)-2H-indazole] |  | 0.168 ± 0.011 µM | 0.0878 ± 0.0083 µM | 0.312 ± 0.011 µM |  |  |  | 150.1 to 152.7 °C |  | 
CS(=O)(=O)c1ccc(-n2cc3ccccc3n2)cc1 [Compound 15, 2-(4-(Methylsulfonyl)phenyl)-2H-indazole] | - | 0.09 ± 0.0234 µM | 0.136 ± 0.0052 µM | 0.145 ± 0.0026 µM | - | - | - | 200.6 to 201.5 °C | - | 
Clc1ccc(-n2nc3ccccc3c2-c2ccccc2)cc1 [Compound 17, 2-(4-Chlorophenyl)-3-phenyl-2H-indazole] | + | 0.0607 ± 0.0023 µM | 0.0213 ± 0.0023 µM | 0.103 ± 0.0023 µM | - | - | - | 124.4 to 125 °C | - | zone of inhibition at 5000 µg/disc [5]: 2 mm; improvement in potency against E. histolytica relative to the analog [2]: two-fold
CSc1ccc(-n2nc3ccccc3c2-c2ccccc2)cc1 [Compound 19, 2-(4-(Methylthio)phenyl)-3-phenyl-2H-indazole] |  |  |  |  |  |  |  | 87.7 to 89 °C |  | 
O=C(O)c1ccc(-n2nc3ccccc3c2-c2ccccc2)cc1 [Compound 20, 4-(3-Phenyl-2H-indazol-2-yl) benzoic acid] | + | 0.0795 ± 0.0045 µM | 0.0445 ± 0.0045 µM | 0.111 ± 0.018 µM | - | - | - | 129.2 to 130.1 °C | + | zone of inhibition at 5000 µg/disc [5]: 2 mm; improvement in potency against G. intestinalis relative to the analog [1, 10]: two-fold; improvement in potency against E. histolytica relative to the analog [2]: two-fold; improvement in potency against T. vaginalis relative to the analog [3, 10]: three-fold; zone of inhibition at 5000 µg/disc (Candida glabrata): 2 mm
CS(=O)(=O)c1ccc(-n2nc3ccccc3c2-c2ccccc2)cc1 [Compound 21, 2-(4-(Methylsulfonyl)phenyl)-3-phenyl-2H-indazole] | - | 0.124 ± 0.0122 µM | 0.208 ± 0.0061 µM | 0.214 ± 0.0101 µM | - | - | - | 101.8 to 102.7 °C | - | inhibition at 10 µM [7]: 44.5 ± 2.65%
Clc1ccc(-c2c3ccccc3nn2-c2ccccc2)cc1 [Compound 22, 3-(4-Chlorophenyl)-2-phenyl-2H-indazole] | + | 0.113 ± 0.007 µM | 0.0394 µM | 0.118 ± 0.0046 µM | - | - | - | 141.1 to 142.8 °C | + | zone of inhibition at 5000 µg/disc [5]: 1 mm; zone of inhibition at 5000 µg/disc (Candida glabrata): 2 mm
CSc1ccc(-c2c3ccccc3nn2-c2ccccc2)cc1 [Compound 24, 3-(4-(Methylthio)phenyl)-2-phenyl-2H-indazole] |  |  |  |  |  |  |  | 119.3 to 121.4 °C |  | 
O=C(O)c1ccc(-c2c3ccccc3nn2-c2ccccc2)cc1 [Compound 25, 4-(2-Phenyl-2H-indazol-3-yl) benzoic acid] | + | 0.121 ± 0.009 µM | 0.0509 µM | 0.24 ± 0.0067 µM | + | - | - | 296.2 to 298.2 °C | - | zone of inhibition at 5000 µg/disc [5]: 2 mm; zone of inhibition at 5000 µg/disc (Candida albicans; Candida albicans, read-out: Zone of inhibition at 5 mg per disc (mm) C. albicans): 1 mm
Cc1ncc([N+](=O)[O-])n1CCO [MTZ, Metronidazole, reference compound] |  | 1.23 ± 0.125 µM | 0.38 ± 0.146 µM | 0.236 ± 0.016 µM |  |  |  |  |  | 
